In US5373020A, “Substituted 5-(2-((2-aryl-2-hydroxyethyl)amino)propyl)-1,3-benzodioxoles” (American Cyanamid Company, priority 1993, dated 1994):
Structures can show the parent of a compound that is named as a salt.

Key:
β2-receptors = biological target: T1, β2-receptors (Mus musculus, UniProt P18762); experiment: Inhibition of insulin-mediated incorporation of 14C-glucose into glycogen in isolated soleus muscle (β2-effect)
T1 construct: Soleus muscle from mice were dissected; from tissue; host or cells: mouse soleus muscle
Experimental: β-Adrenergic receptors can be divided into β1, β2 and β3 -subtypes. Activation of β1 -receptors invokes increases in heart rate while activation of β2 -receptors stimulates glycogen breakdown in muscle and thereby prevents glycogen synthesis. Activation of β3 -receptors stimulates lipolysis (the breakdown of adipose tissue triglycerides to glycerol and free fatty acids), and thereby promotes the loss of fat mass.
The β2 -effect of the compounds was determined by their ability to inhibit the insulin-mediated incorporation of ^14 C-glucose into glycogen in isolated muscle. Soleus muscle from mice were dissected, tied at each end, and placed in a clamp to maintain tension. The clamped muscle was added to a vial that contained 2 ml of KHB with 1.5% bovine serum albumin, 0.3 mU/ml insulin, 5 mM (U^-14 C) glucose, and the appropriate additions of compound or vehicle. The vial was gassed with 95% O2 -5% CO2, capped, and the tissue incubated for one hour in a rotating water bath at 37° C. The muscle was then removed, rinsed in ice-cold saline, blotted and weighed. It was then added to 1 ml of 30% KOH containing 5 mg/ml of oyster glycogen, boiled for 10 minutes, and 0.4 ml of 2% Na2 SO4 and 3.2 ml of 100% ethanol added. After standing overnight at 4° C., the glycogen was pelleted by centrifugation, washed once with 66% ethanol, and repelleted. The pellet was dissolved in 1 ml of water and the amount of radioactivity present determined by liquid scintillation.

db/db mice = experiment: Plasma glucose, compound in chow, diabetic mice; format: in vivo, mouse (C57 B1/KsJ db/db)
Experimental: The compounds of this invention were tested for hypoglycemic and anti-obesity activity according to the following procedure.
Obese mice (C57 B1/6J (ob/ob)), and/or diabetic mice (C57 B1/KsJ (db/db)) were obtained from Jackson Laboratories, Bar Harbor, Maine. Obese rats (fa/fa) were obtained from Charles River Laboratories, Wilmington, Mass. Obese mice were 8 weeks of age and diabetic mice were 9 weeks of age at the start of the test. Obese rats were 12-14 weeks of age at the start.
The test compounds were dissolved in methanol, mixed with powdered Purina rodent chow on a weight of compound to weight of chow basis and thoroughly dried.
Groups of 6 control mice or rats received vehicle (methanol) treated chow.
Groups of 6 test mice were fed ad libitum for up to seven weeks and food consumption was measured daily by weighing the food bins before and after the addition of fresh chow. Thus, a 40 g mouse, fed the test compound at a concentration of 0.02 percent of the diet, would receive a dose of 20 mg/kg/day if it ate 4 g of chow per day.
The mice or rats were weighed before the first treatment and once at the end of each indicated treatment period.
Blood samples were collected before the first treatment and once at the end of each indicated treatment period by retro-orbital puncture using heparinized capillary tubes.
Plasma was separated by centrifugation in a Beckman microfuge for 5 minutes. Plasma glucose concentrations were determined with the Beckman glucose analyzer which uses a glucose oxidase method.

T1 sequence (P18762 whole entry): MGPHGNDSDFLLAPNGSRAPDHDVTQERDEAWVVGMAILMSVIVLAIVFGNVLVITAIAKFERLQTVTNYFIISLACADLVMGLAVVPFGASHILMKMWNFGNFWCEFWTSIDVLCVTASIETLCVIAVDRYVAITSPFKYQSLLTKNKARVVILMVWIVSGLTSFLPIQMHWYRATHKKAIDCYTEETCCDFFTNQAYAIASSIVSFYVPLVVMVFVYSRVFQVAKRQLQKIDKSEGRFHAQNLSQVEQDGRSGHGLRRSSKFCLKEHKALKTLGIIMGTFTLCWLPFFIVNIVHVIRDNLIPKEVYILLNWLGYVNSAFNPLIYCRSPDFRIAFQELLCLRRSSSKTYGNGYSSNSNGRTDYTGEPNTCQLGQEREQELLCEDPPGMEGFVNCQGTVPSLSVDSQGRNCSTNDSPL

SMILES: COC(=O)C1(C(=O)OC)Oc2ccc(C[C@@H](C)NC[C@H](O)c3cccc(Cl)c3)cc2O1 (stereo in doubt) [CL1, (R* R*)-(±)-5-(2-((2-(3-chlorophenyl)-2-hydroxyethyl)amino)propyl)-1,3-benzodioxole-2,2-dicarboxylic acid, dimethyl ester hydrobromide]
- EC50 (β2-receptors): 800 nM
- Plasma Glucose Levels (db/db mice; dose 0.0005 % wt of chow, week 0 (before treatment)): 452 mg/100 ml
- Plasma Glucose Levels (db/db mice; dose 0.0005 % wt of chow, week 1): 162 mg/100 ml
- Plasma Glucose Levels (db/db mice; dose 0.0005 % wt of chow, week 5): 164 mg/100 ml
- Plasma Glucose Levels (db/db mice; dose 0.0005 % wt of chow, week 7): 17 mg/100 ml
- Plasma Glucose Levels (db/db mice; dose 0.002 % wt of chow, week 0 (before treatment)): 453 mg/100 ml
- Plasma Glucose Levels (db/db mice; dose 0.002 % wt of chow, week 1): 151 mg/100 ml
- Plasma Glucose Levels (db/db mice; dose 0.002 % wt of chow, week 5): 150 mg/100 ml
- Plasma Glucose Levels (db/db mice; dose 0.002 % wt of chow, week 7): 16 mg/100 ml
- Plasma Glucose Levels (db/db mice; dose 0.005 % wt of chow, week 0 (before treatment)): 447 mg/100 ml
- Plasma Glucose Levels (db/db mice; dose 0.005 % wt of chow, week 1): 148 mg/100 ml
- Plasma Glucose Levels (db/db mice; dose 0.005 % wt of chow, week 5): 138 mg/100 ml
- Plasma Glucose Levels (db/db mice; dose 0.005 % wt of chow, week 7): 18 mg/100 ml
